# According to the kinase profiling compilation of Christmann-Franck et al. (2016):
# Experiments:
# Experiment in all cases: KINOMEscan competition binding
# Settings in all cases: compound 10.0 µM
# ACVR1B (human) = ACVR1B (human) (UniProt P36896)
# MAPKAPK2 (human) = MAPKAPK2 (human) (UniProt P49137)
# TGFBR1 (human) = TGFBR1 (human) (UniProt P36897)
# MAPK7 (human) = MAPK7 (human) (UniProt Q13164)
# CLK2 (human) = CLK2 (human) (UniProt P49760)
# AAK1 (human) = AAK1 (human) (UniProt Q2M2I8)
# PAK4 (human) = PAK4 (human) (UniProt O96013)
# MAP4K2 (human) = MAP4K2 (human) (UniProt Q12851)
# CAMKK1 (human) = CAMKK1 (human) (UniProt Q8N5S9)
# ULK3 (human) = ULK3 (human) (UniProt Q6PHR2)
# MAP4K5 (human) = MAP4K5 (human) (UniProt Q9Y4K4)
# TLK2 (human) = TLK2 (human) (UniProt Q86UE8)
# CDC42BPB (human) = CDC42BPB (human) (UniProt Q9Y5S2)
# PTK2 (human) = PTK2 (human) (UniProt Q05397)
# STK32B (human) = STK32B (human) (UniProt Q9NY57)
# CDC42BPG (human) = CDC42BPG (human) (UniProt Q6DT37)
# CSNK1D (human) = CSNK1D (human) (UniProt P48730)
# FGFR1 (human) = FGFR1 (human) (UniProt P11362)
# ACVR1 (human) = ACVR1 (human) (UniProt Q04771)
# PKN2 (human) = PKN2 (human) (UniProt Q16513)
# EPHA2 (human) = EPHA2 (human) (UniProt P29317)
# PLK3 (human) = PLK3 (human) (UniProt Q9H4B4)
# PIM2 (human) = PIM2 (human) (UniProt Q9P1W9)
# MAPK14 (human) = MAPK14 (human) (UniProt Q16539)
# ERBB2 (human) = ERBB2 (human) (UniProt P04626)
# PLK4 (human) = PLK4 (human) (UniProt O00444)
# MAP3K4 (human) = MAP3K4 (human) (UniProt Q9Y6R4)
# NLK (human) = NLK (human) (UniProt Q9UBE8)
# PRKG1 (human) = PRKG1 (human) (UniProt Q13976)
# RPS6KA2 KD1 (human) = RPS6KA2 KD1 (human) (UniProt Q15349)
# EPHA6 (human) = EPHA6 (human) (UniProt Q9UF33)
# RPS6KA4 KD1 (human) = RPS6KA4 KD1 (human) (UniProt O75676)
# PRKD2 (human) = PRKD2 (human) (UniProt Q9BZL6)
# PDPK1 (human) = PDPK1 (human) (UniProt O15530)
# FGFR3 (human) = FGFR3 (human) (UniProt P22607)
# CSK (human) = CSK (human) (UniProt P41240)
# RPS6KA2 KD2 (human) = RPS6KA2 KD2 (human) (UniProt Q15349)
# SRPK1 (human) = SRPK1 (human) (UniProt Q96SB4)
# ERBB4 (human) = ERBB4 (human) (UniProt Q15303)
# PKN1 (human) = PKN1 (human) (UniProt Q16512)
# Sequence of PKN2 (human) (Q16513 whole entry, looked up): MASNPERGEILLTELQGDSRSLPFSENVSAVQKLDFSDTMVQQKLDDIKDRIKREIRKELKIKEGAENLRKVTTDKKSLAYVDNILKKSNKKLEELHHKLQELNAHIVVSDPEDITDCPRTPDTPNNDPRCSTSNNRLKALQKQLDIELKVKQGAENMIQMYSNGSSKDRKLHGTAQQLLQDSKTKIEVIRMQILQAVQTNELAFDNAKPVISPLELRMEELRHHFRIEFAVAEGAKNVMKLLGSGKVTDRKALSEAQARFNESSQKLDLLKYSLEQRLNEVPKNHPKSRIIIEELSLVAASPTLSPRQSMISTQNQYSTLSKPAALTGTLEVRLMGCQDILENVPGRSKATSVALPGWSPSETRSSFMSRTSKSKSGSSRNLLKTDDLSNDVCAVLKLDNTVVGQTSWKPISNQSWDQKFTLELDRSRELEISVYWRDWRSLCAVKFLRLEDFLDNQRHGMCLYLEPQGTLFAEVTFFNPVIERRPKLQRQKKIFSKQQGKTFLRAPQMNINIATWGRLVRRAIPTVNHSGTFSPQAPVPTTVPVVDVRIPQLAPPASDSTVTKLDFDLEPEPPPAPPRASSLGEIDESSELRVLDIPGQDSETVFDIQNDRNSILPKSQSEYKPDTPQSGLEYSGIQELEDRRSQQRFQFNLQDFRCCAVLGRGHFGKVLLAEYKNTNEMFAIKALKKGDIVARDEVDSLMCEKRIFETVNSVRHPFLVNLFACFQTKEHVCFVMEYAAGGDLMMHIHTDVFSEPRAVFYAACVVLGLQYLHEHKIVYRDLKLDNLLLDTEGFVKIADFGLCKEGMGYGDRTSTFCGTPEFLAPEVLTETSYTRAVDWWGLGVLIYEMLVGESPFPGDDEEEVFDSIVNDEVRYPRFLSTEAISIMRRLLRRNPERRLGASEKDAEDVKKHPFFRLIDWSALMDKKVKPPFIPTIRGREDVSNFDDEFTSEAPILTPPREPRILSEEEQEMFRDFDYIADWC
# Sequence of FGFR3 (human) (P22607 whole entry, looked up): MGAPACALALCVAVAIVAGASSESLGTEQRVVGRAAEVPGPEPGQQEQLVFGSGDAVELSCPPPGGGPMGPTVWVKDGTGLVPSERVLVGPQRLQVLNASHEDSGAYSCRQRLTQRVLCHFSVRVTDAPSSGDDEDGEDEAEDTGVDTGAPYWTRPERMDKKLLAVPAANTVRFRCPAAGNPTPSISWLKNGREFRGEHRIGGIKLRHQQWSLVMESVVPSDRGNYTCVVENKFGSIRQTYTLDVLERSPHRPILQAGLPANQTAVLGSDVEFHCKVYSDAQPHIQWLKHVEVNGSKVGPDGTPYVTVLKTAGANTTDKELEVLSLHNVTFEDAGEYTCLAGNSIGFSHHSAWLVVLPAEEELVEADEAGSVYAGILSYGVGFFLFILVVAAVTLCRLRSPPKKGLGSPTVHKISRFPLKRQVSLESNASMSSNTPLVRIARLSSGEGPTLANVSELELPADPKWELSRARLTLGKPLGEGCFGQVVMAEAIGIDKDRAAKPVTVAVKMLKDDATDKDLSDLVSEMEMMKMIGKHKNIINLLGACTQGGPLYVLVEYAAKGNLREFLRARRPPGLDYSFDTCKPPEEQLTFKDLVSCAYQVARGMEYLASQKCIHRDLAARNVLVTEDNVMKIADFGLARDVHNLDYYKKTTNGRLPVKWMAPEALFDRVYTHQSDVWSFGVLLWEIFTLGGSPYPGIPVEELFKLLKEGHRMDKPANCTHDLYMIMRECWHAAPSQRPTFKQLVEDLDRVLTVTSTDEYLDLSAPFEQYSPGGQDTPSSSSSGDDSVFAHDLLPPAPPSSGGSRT
# Sequence of AAK1 (human) (Q2M2I8 whole entry, looked up): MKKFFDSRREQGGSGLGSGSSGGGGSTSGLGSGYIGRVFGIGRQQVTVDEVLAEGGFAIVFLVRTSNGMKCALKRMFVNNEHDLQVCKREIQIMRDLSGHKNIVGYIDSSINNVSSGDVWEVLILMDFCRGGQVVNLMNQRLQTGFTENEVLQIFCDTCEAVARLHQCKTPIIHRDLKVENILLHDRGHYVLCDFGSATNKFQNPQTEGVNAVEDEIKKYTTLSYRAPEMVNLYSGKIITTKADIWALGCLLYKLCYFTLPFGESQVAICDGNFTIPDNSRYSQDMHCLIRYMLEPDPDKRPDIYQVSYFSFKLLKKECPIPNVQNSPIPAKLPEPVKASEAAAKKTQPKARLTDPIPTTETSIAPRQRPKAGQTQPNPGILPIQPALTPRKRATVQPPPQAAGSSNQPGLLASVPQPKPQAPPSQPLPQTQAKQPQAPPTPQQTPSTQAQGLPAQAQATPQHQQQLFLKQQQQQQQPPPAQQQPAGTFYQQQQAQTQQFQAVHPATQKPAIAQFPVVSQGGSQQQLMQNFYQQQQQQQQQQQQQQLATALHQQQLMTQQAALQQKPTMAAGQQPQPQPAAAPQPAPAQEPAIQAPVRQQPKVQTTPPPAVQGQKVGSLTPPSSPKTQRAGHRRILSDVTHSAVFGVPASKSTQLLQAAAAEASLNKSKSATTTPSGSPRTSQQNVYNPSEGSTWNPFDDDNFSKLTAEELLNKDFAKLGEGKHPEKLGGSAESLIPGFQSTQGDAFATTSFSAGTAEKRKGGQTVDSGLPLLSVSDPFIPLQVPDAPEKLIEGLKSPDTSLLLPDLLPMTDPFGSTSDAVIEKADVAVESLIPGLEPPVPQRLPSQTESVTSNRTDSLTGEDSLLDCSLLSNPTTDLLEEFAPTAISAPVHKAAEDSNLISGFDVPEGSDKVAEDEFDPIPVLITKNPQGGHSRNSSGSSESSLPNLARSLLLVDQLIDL
# Sequence of CAMKK1 (human) (Q8N5S9 whole entry, looked up): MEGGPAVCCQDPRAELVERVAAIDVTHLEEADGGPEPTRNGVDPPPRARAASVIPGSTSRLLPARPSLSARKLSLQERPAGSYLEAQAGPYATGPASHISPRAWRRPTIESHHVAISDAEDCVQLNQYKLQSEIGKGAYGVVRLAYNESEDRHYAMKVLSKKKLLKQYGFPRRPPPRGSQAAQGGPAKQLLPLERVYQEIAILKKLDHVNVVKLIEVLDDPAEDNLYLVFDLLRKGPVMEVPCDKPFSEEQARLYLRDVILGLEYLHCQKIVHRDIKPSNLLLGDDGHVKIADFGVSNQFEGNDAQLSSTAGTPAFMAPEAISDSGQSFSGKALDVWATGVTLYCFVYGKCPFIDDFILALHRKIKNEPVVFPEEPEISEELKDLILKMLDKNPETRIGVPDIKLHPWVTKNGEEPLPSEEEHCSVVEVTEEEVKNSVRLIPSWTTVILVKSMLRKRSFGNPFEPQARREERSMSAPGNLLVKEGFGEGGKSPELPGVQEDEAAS
# Sequence of SRPK1 (human) (Q96SB4 whole entry, looked up): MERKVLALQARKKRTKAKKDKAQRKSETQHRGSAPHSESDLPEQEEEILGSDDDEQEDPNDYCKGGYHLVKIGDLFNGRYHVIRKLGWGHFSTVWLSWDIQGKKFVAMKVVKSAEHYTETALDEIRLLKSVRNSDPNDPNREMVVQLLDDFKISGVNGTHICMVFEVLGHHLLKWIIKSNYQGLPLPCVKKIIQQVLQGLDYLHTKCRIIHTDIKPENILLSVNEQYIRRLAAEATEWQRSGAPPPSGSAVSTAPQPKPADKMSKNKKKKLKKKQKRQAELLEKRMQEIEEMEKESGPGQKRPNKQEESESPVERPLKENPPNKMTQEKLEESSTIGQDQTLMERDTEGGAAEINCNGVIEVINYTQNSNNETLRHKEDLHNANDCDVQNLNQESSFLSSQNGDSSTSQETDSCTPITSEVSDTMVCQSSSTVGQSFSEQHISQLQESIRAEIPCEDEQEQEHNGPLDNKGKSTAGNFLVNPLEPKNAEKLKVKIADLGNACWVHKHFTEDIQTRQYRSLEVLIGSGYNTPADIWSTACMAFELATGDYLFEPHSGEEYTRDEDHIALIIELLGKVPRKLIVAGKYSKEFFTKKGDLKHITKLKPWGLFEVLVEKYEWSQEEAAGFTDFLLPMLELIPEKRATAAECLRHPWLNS
# Sequence of CSNK1D (human) (P48730 whole entry, looked up): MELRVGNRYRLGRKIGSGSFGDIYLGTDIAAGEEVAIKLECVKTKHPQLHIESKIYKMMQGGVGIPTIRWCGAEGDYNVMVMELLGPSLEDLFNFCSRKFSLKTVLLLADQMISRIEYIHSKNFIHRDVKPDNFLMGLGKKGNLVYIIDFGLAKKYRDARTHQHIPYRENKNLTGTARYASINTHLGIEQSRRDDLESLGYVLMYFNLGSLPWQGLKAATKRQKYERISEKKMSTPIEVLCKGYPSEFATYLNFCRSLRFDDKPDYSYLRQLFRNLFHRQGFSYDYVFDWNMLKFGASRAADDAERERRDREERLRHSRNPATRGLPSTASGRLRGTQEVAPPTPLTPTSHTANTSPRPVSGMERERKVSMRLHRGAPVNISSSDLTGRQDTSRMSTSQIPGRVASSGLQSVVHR
# Sequence of CSK (human) (P41240 whole entry, looked up): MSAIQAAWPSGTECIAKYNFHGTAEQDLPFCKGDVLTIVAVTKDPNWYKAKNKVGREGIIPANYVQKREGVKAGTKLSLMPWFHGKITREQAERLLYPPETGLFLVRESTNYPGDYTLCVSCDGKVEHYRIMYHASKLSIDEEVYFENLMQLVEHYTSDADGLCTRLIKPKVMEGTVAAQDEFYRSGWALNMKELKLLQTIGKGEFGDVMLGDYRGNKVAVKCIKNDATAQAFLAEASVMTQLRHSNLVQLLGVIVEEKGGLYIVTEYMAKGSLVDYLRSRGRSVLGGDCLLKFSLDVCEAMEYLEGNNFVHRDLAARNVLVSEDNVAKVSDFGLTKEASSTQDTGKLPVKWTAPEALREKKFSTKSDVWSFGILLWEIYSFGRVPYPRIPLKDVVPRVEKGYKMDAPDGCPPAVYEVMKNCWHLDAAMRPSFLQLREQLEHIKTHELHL
smiles,measurement,setting,value
Cc1cc([C@@H](C)Nc2ccccc2C(=O)O)c2nc(N3CCOCC3)cc(=O)n2c1,"kinase still bound, per cent of control",ACVR1B (human),93%
same,"kinase still bound, per cent of control",MAPKAPK2 (human),66%
same,"kinase still bound, per cent of control",TGFBR1 (human),100%
same,"kinase still bound, per cent of control",MAPK7 (human),100%
same,"kinase still bound, per cent of control",CLK2 (human),70%
same,"kinase still bound, per cent of control",AAK1 (human),95%
same,"kinase still bound, per cent of control",PAK4 (human),100%
same,"kinase still bound, per cent of control",MAP4K2 (human),56%
same,"kinase still bound, per cent of control",CAMKK1 (human),98%
same,"kinase still bound, per cent of control",ULK3 (human),98%
same,"kinase still bound, per cent of control",MAP4K5 (human),96%
same,"kinase still bound, per cent of control",TLK2 (human),88%
same,"kinase still bound, per cent of control",CDC42BPB (human),100%
same,"kinase still bound, per cent of control",PTK2 (human),88%
same,"kinase still bound, per cent of control",STK32B (human),71%
same,"kinase still bound, per cent of control",CDC42BPG (human),100%
same,"kinase still bound, per cent of control",CSNK1D (human),86%
same,"kinase still bound, per cent of control",FGFR1 (human),89%
same,"kinase still bound, per cent of control",ACVR1 (human),98%
same,"kinase still bound, per cent of control",PKN2 (human),98%
same,"kinase still bound, per cent of control",EPHA2 (human),70%
same,"kinase still bound, per cent of control",PLK3 (human),89%
same,"kinase still bound, per cent of control",PIM2 (human),70%
same,"kinase still bound, per cent of control",MAPK14 (human),97%
same,"kinase still bound, per cent of control",ERBB2 (human),100%
same,"kinase still bound, per cent of control",PLK4 (human),100%
same,"kinase still bound, per cent of control",MAP3K4 (human),100%
same,"kinase still bound, per cent of control",NLK (human),94%
same,"kinase still bound, per cent of control",PRKG1 (human),100%
same,"kinase still bound, per cent of control",RPS6KA2 KD1 (human),97%
same,"kinase still bound, per cent of control",EPHA6 (human),100%
same,"kinase still bound, per cent of control",RPS6KA4 KD1 (human),94%
same,"kinase still bound, per cent of control",PRKD2 (human),100%
same,"kinase still bound, per cent of control",PDPK1 (human),100%
same,"kinase still bound, per cent of control",FGFR3 (human),83%
same,"kinase still bound, per cent of control",CSK (human),100%
same,"kinase still bound, per cent of control",RPS6KA2 KD2 (human),98%
same,"kinase still bound, per cent of control",SRPK1 (human),100%
same,"kinase still bound, per cent of control",ERBB4 (human),100%
same,"kinase still bound, per cent of control",PKN1 (human),100%
